{"source": "patent US9394299B2", "about": "“Rilyazine derivatives and compositions for the treatment of cancer” (Warner Babcock Institute for Green Chemistry, LLC, priority 2013, dated 2016)", "key": {"[1]": {"tested_on": "60 cell lines (human tumor cell lines of the cancer screening panel)", "test": "NCI 60 cell line screening, single point dosing at 10 μM (SRB)", "type": "cell-based", "protocol": "The screening is a two-stage process, beginning with the evaluation of all compounds against 60 cell lines at a single dose of 10^−5 M.\nThe human tumor cell lines of the cancer screening panel are grown in RPMI 1640 medium containing 5% fetal bovine serum and 2 mM L-glutamine. Cells are inoculated into 96 well microtiter plates in 100 μL at plating densities ranging from 5,000 to 40,000 cells/well depending on the doubling time of individual cell lines. After cell inoculation, the microtiter plates are incubated at 37° C., 5% CO2, 95% air and 100% relative humidity for 24 h prior to addition of experimental drugs.\nAfter 24 h, two plates of each cell line are fixed in situ with TCA, to represent a measurement of the cell population for each cell line at the time of drug addition Time Zero (Tz). Experimental drugs are solubilized in dimethyl sulfoxide:glycerol 9:1 at 400-fold the desired final maximum test concentration and stored frozen at −70° C. prior to use. At the time of drug addition, an aliquot of frozen concentrate is thawed and diluted to twice the desired final maximum test concentration with complete medium containing 50 μg/ml gentamicin. Additional four, 10-fold or ½ log serial dilutions are made to provide a total of five drug concentrations plus control. Aliquots of 100 μl of these different drug dilutions are added to the appropriate microtiter wells already containing 100 μl of medium, resulting in the required final drug concentrations.\nPositive control is prepared by adding the known anti-tumor agent adriamycin, NSC 123127, prepared and stored the same as the compounds for testing.\nFollowing drug addition, the plates are incubated for an additional 48 h at 37° C., 5% CO2, 95% air, and 100% relative humidity. For adherent cells, the assay is terminated by the addition of cold TCA. Cells are fixed in situ by the gentle addition of 50 μl of cold 50% (w/v) TCA (final concentration, 10% TCA) and incubated for 60 minutes at 4° C. The supernatant is discarded, and the plates are washed five times with tap water and air dried. Sulforhodamine B (SRB) solution (100 μl) at 0.4% (w/v) in 1% acetic acid is added to each well, and plates are incubated for 10 minutes at room temperature. After staining, unbound dye is removed by washing five times with 1% acetic acid and the plates are air dried. Bound stain is subsequently solubilized with 10 mM trizma base, and the absorbance is read on an automated plate reader at a wavelength of 515 nm. For suspension cells, the methodology is the same except that the assay is terminated by fixing settled cells at the bottom of the wells by gently adding 50 μl of 80% TCA (final concentration, 16% TCA).\nFor the 1-dose 60 cell testing, the Growth Percent is calculated for each cell line/drug combination from the absorbance measurement for the no-drug control (C), the absorbance at time zero (Tz) and the absorbance measurement after incubation of the cells in the presence of drug (Ti): Growth Percent=[(Ti−Tz)/(C−Tz)]×100 for cell line/drug combinations for which Ti≧Tz. Growth Percent=[(Ti−Tz)/Tz]×100 for cell line/drug combinations for which Ti<Tz.\nCalculation of the Growth Percent by these equations allows detection of both growth inhibition (Growth Percent values between 0 and 100) and lethality (Growth Percent values less than 0). For example, a Growth Percent value of 100 means no growth inhibition. A Growth Percent value of 40 would mean 60% growth inhibition. A Growth Percent value of 0 means no net growth over the course of the experiment, or “cytostatic”, no change by growth or cell death. A Growth Percent value of −40 would mean 40% lethality. A Growth Percent value of −100 means all cells are dead.\nFor 1-dose 60 cell testing, the Mean Growth Percent, Delta and Range across all 60 cell lines are also calculated. The Deviation of each cell line/drug combination from the Mean is also calculated and plotted: Deviation=Mean Growth Percent−Growth Percent […]"}, "Colo-205 cells": {"tested_on": "Colo-205 cells", "test": "MTT cell proliferation assay, Colo-205", "type": "cell-based", "conditions": "72 h-exposure, 30-0.041 μM", "protocol": "In vitro characterizing of the effects of rilyazine analogs on cell proliferation and apoptosis in the paired epithelial/mesenchymal lines (Colo205/Colo-R, DLD/DLD-SNAIL and MCF7/MCF7-WISP) was performed in an independent laboratory.\nThe Dose Preparation is based on a reconstitute in DMSO. The Concentration of the stock solution is 100 mM. Storage of the stock solution is under −80° C.\nWorking drug solution of rilyazine analogs: A stock solution of 100 mM OTX015 in DMSO was prepared and stored at −80° C. For growth inhibition studies, dilution series were prepared by (1) diluting stock solution into DMSO, then (2) diluting 1:300 in culture medium supplemented with 10% FBS giving a final concentration in 0.3% DMSO in the 96-well plates.\nCell lines. Cells lines were maintained in RPMI 1640 (PAA Laboratories, France) supplemented with 10% fetal bovine serum (FBS; PAA Laboratories, France), 2 mM glutamine (PAA Laboratories, France), 100 units/ml penicillin and 100 μg/ml streptomycin (PAA Laboratories, France). Cells were free of Mycoplasma.\nProliferation assays. Cell proliferation was determined using the MTT assay (3-[4,5-dimethylthiazol-2-yl]-2,5-diphenyltetrazolium bromide; Sigma-Aldrich, St. Louis, Mo.). […] After incubation, the supernatant was discarded, the cell pellet was resuspended in 0.1 mL DMSO, and the absorbance was measured at 560 nm using a microplate reader (Thermo, France). […]"}, "[2]": {"conditions": "single dose 10^−5 M, 60 cell lines"}, "[3]": {"conditions": "single point 10 μM, 60 cell lines"}}, "note": "“Also recorded” adds a separate entry of the source."}
{"smiles": "S=c1c2ncccc2c(-c2ccccn2)nn1C1CCCCC1", "note": "[RL-4, 7-cyclohexyl-5-(pyridin-2-yl)pyrido[2,3-d]pyridazine-8(7H)-thione]", "values": [{"measurement": "GI50", "setting": "[1]; Homo sapiens, single point 10 μM, 22 of 60 cell lines, read-out: GI50 for 22 of 60 cell lines (NCI Results, single point, 10 μM)", "value": "≤ 10", "unit": "µM"}, {"measurement": "LC50", "setting": "[1]; Homo sapiens, single point 10 μM, all 60 cell lines, read-out: LC50 for all 60 cell lines tested (NCI Results, single point, 10 μM)", "value": "> 10", "unit": "µM"}, {"measurement": "Delta of Growth Percent across all cell lines", "setting": "[1]; [2]", "value": 52.07}, {"measurement": "Mean Growth Percent across all cell lines", "setting": "[1]; [2]", "value": 59.94, "unit": "%"}, {"measurement": "Range of Growth Percent across all cell lines", "setting": "[1]; [2]", "value": 121.36}, {"measurement": "number of cell lines with Growth Percentages greater than 90%", "setting": "[1]; single dose 10^−5 M, of 60 cell lines", "value": 6}, {"measurement": "anti-proliferative effect / growth inhibition (in words)", "setting": "[1]; [3]", "value": "significant growth inhibition in almost all cell lines; also recorded: has anti-proliferative effects; also recorded: showed cell growth inhibition across the screened cell lines; also recorded: significant growth inhibition in cancer cell lines"}, {"measurement": "toxicity / cell lethality (in words)", "setting": "[1]; [3]", "value": "relatively non-toxic; also recorded: no associated toxicity; also recorded: No Toxicity is observed"}, {"measurement": "number of cell lines with growth inhibition ≧50%", "setting": "[1]; single point 10 μM, of 60 cell lines tested", "value": 22}, {"measurement": "anti-proliferative effects (in words)", "setting": "Colo-205 cells", "value": "dose-dependent anti-proliferative effects"}]}
